Test results reported in patent EP2327766B1, “Nitrilases” (BASF Enzymes LLC, priority 2001, dated 2003).

How the values were obtained:
[1] = tested on: Nitrilase II, SEQ ID NOS:103, 104, obtained from an environmental sample; experiment: High throughput nitrilase activity assay, turnover frequency on aryl acetaldehyde cyanohydrins; type: biochemical, Unknown (obtained from an environmental sample); conditions: conditions as in Table 13 (25 mM substrate, 10% MeOH, 37°C, pH 8), except 0.016 mg/mL nitrilase
Excerpt: We next examined the preparation of aryllactic acid derivatives 6 through hydrolysis of the corresponding cyanohydrins 5. Phenyllactic acid and derivatives serve as versatile building blocks for the preparation of numerous biologically active compounds. (Coppola, G.M.; Schuster, H.F. Chiral α-Hydroxy Acids in Enantioselective Synthesis; Wiley-VCH: Weinheim, Germany: 1997.) Upon screening our nitrilase library against the parent cyanohydrin 5a (Ar= phenyl), we found several enzymes that provided 6a with high enantiomeric excess. One enzyme, SEQ ID NOS: 103, 104, was further characterized. […] The highest [drawing 20] enantioselectivity previously reported for biocatalytic conversion of 5 to 6 was 75% ee achieved through a whole cell transformation using a Pseudomonas strain. (Hashimoto, Y.; Kobayashi, E.; Endo, T.; Nishiyama, M.; Horinouchi, S. Biosci. Biotech. Biochem. 1996, 60, 1279.) Table 14. Nitrilase II-catalyzed production of aryllactic acid derivatives and analogues 6a
(§1) Assay solutions consisted of 0-10% (v/v) MeOH in 0.1 M sodium phosphate buffer solution at pH 7 to 9 and temperatures 37°C or 22°C. Specific activities were measured at 5 min transformation time point, unless otherwise noted, and are expressed in units µmol mg^-1 min^-1. Enantiomeric excess and conversion rates were determined by high throughput HPLC analysis comparing enzyme product concentration to standard curves of racemic acid products. Analytical conditions for the products are tabulated below.

[2] = tested on: nitrilase SEQ ID NOS:385, 386 (nitrilase I), obtained from an environmental sample; experiment: High throughput nitrilase activity assay, turnover frequency on mandelonitrile derivatives; type: biochemical, Unknown (obtained from an environmental sample)
Experimental: The nitrilase library was screened for activity and enantioselectivity in the hydrolysis of mandelonitrile (3a, Ar = phenyl) to mandelic acid. […] Under standard conditions using 25 mM 3a and 0.12 mg/mL enzyme in 10% MeOH (v/v) 0.1 M phosphate buffer at 37°C and pH 8, (R)-mandelic acid was formed quantitatively within 10 min and with 98% ee. To confirm synthetic utility, the reaction was performed using 1.0 g 3a (50 mM) and 9 mg nitrilase (0.06 mg/mL nitrilase I); after 3 h (R)-mandelic acid was isolated in high yield (0.93 g, 86%) and again with 98% ee. [drawing 19] Table 13. SEQ ID NOS:385, 386-catalyzed production of mandelic acid derivatives and analogues 4a
as §1, with “Activity assays were conducted using 25 mM (-3 mg/mL) substrate, 0.1 mg/mL nitrilase in 0.25 mL of assay solution. Assay” for “Assay”

[3] = tested on: nitrilase SEQ ID NOS:103, 104; experiment: Effect of starting material and product on nitrilase activity (phenylacetaldehyde cyanohydrin hydrolysis); type: biochemical, Unknown (obtained from an environmental sample); conditions: up to levels of 5 mM
Experimental: The effect of the process components on the activity of the enzymes was established by addition of the individual components to the enzymatic reaction. These components included the starting materials for the nitrile synthesis, aldehyde, cyanide and ammonium, as well as triethylamine, which is added in catalytic amounts to the nitrile synthesis reaction. The concentrations of the reactants were selected with possible process conditions in mind and were adapted to the levels of reactants used in the enzyme assays. In some cases, the solubility of the aldehydes and products was relatively low; in these cases, the highest level of solubility was added to the reactions as the highest level and 10% of this level as the lower value.
The enzymatic reactions were carried out under standard conditions, with addition of one or more of the following components: benzaldehyde, phenylglycine, phenylacetaldehyde, phenyllactic acid, 2-chlorobenzaldehyde, 2-chloromandelic acid, 5-hydroxypentanal, (S)-2-amino-6-hydroxy hexanoic acid, 4-methylleucine, KCN, Triethylamine, NH4Cl. Control reactions were performed under standard conditions, with no additive. The samples were analyzed by non-chiral HPLC.
SEQ ID NOS: 103, 104 was identified as a highly enantioselective nitrilase for the production of (S)- phenyllactic acid. […] The scaled-up enzymatic reaction with an enantiomeric excess (ee) of 95%. […]

[4] = tested on: nitrilase SEQ ID NOS:385, 386, obtained from an environmental sample; experiment: Effect of reaction components on nitrilase activity (2-chloromandelonitrile hydrolysis, non-chiral HPLC); type: biochemical, Unknown (obtained from an environmental sample); conditions: 5 mM additive; 25 mM 2-chloromandelonitrile, 0.1 M phosphate buffer pH 8, 37°C
Excerpt: A vital part of an investigation into process optimization of an enzyme involves the determination of the effects of any compounds which could be present in the enzymatic reaction. For SEQ ID NOS:385, 386, these components were established as the starting material and equilibrium product of the cyanohydrin, 2-chlorobenzaldehyde; the product, 2-chloromandelic acid and the contaminant detected in the substrate, 2-chlorobenzoic acid. […] The presence of trace amounts of triethylamine was also found to be tolerable to the enzyme.
The effect of the various reaction components on the activity of SEQ ID NOS:385, 386 was assessed by addition of various levels of possible inhibitors to the enzyme reaction. […]
• (i) Activity: The effect of the process components on the activity of the enzymes was established by addition of the individual components, 2-chlorobenzaldehyde, 2-chlorobenzoic acid or 2-chloromandelic acid, to the enzymatic reaction. […] The samples were analysed by non-chiral HPLC. • (ii) Stability: The stability of the enzymes to process conditions was monitored by incubation of the enzymes in the presence of the reaction components, 2-chlorobenzaldehyde and 2-chloromandelic acid for predetermined time periods, prior to assay of the enzyme activity under standard conditions. […]

[5] = tested on: nitrilase expressing subclones SEQ ID NOS:101, 102, SEQ ID NOS:187, 188, SEQ ID NOS:29, 30; experiment: Growth of nitrilase expressing subclones in the presence of HPA nitrile; type: cell-based
Experimental: In preparation for assay automation, nitrilase expressing cells were added into microtiter plate containing M9 0.2% glucose,0.25 mM IPTG media by florescence activated cell sorting (FACS). Three nitrilase expressing subclones, and the empty vector control were evaluated: SEQ ID NOS:101, 102, SEQ ID NOS:187, 188, SEQ ID NOS:29, 30 and the empty vector. […] Thus colony picking is currently being evaluated as an alternative method to add cells into microtiter plates. The evaporative loss from an uncovered 1536-well microtiter plate is approximately 30% per day in the robot incubator (incubator conditions: 37°C at 85% relative humidity (RH)). Incubation in the 95% RH incubator reduced evaporative loss to 1% per day.
The ability of the three subclones to grow in the presence of up to 3.5 mM of nitrile was established using HPA nitrile. Growth rates were only slightly retarded (less that 30%). […] Only S was evaluated as the enzymes are S-selective. The reaction plate was read at 10 minute intervals, with 40 minutes showing the best linearity.

[6] = 25 mM substrate, 0.12 mg/mL enzyme, 10% MeOH (v/v) 0.1 M phosphate buffer, 37°C, pH 8, 5 min timepoint
[7] = entries 8-9: pH 9 and 5 mM substrate concentration, otherwise standard conditions

Compound | TOF (turnover frequency) [1] | TOF (turnover frequency) [2, 6] | other results
N#CC(O)Cc1cccc(F)c1 (stereo not shown) [3-tluorophenyl acetaldehyde cyanohydrin] | 14 mol product/mol catalyst/sec |  | 
N#CC(O)c1ccccc1Cl (stereo not shown) [2-chloro mandelonitrile] |  | 1.7 mol product/mol catalyst/sec | 
N#CC(O)c1cccnc1 (stereo not shown) [3-pyridyl cyanohydrin] |  | 18.6 mol product/mol catalyst/sec | 
N#CC(O)Cc1ccccc1 (stereo not shown) [phenyl acetaldehyde cyanohydrin] | 16 mol product/mol catalyst/sec |  | 
N#CC(O)c1ccccc1Br (stereo not shown) [2-bromomandelonitrile] |  | 5.6 mol product/mol catalyst/sec | 
N#CC(O)c1ccsc1 (stereo not shown) [3-thienyl cyanohydrin] |  | 16.8 mol product/mol catalyst/sec | 
Cc1ccccc1CC(O)C#N (stereo not shown) [2-methylphenyl acetaldehyde cyanohydrin] | 100 mol product/mol catalyst/sec |  | 
Cc1cccc(CC(O)C#N)c1 (stereo not shown) [3-methylphenyl acetaldehyde cyanohydrin] | 13 mol product/mol catalyst/sec |  | 
O=CCc1ccccc1 [phenylacetaldehyde] |  |  | effect on the enzyme activity [3]: no effect
N#CC(O)Cc1ccccc1F (stereo not shown) [2-fluorophenyl acetaldehyde cyanohydrin] | 97 mol product/mol catalyst/sec |  | 
3-pyridyl acetaldehyde cyanohydrin | 7.2 mol product/mol catalyst/sec |  | 
N#CC(O)c1cccc2ccccc12 (stereo not shown) [1-naphthyl cyanohydrin] |  |  | TOF (turnover frequency) [2, 7]: 2.8 mol product/mol catalyst/sec
N#CC(O)c1ccccc1 (stereo not shown) [mandelonitrile] |  | 28 mol product/mol catalyst/sec | 
O=Cc1ccccc1Cl [2-chlorobenzaldehyde] |  |  | activity lost upon addition to the reaction [4]: Approximately 70%
N#CC(O)c1cccc(Br)c1 (stereo not shown) [3-bromomandelonitrile] |  | 1.7 mol product/mol catalyst/sec | 
O=C(O)c1ccccc1Cl [2-chlorobenzoic acid] |  |  | activity lost upon addition to the reaction [4]: ~40%
N#CC(O)c1cccc(Cl)c1 (stereo not shown) [3-chloromandelonitrile] |  | 3.4 mol product/mol catalyst/sec | 
N#CC(O)Cc1cccs1 (stereo not shown) [2-thienyl acetaldehyde cyanohydrin] | 2.1 mol product/mol catalyst/sec |  | 
CC(C)(CO)C(N)C#N (stereo not shown) [HPA, Hydroxypivaldehyde aminonitrile] |  |  | concentration above which cell growth is significantly inhibited ([5]; cells grown at pH 7): above 5 mM; concentration above which growth was inhibited ([5]; cells grown at pH 8): above 0.1 mM; growth rates retarded ([5]; in the presence of up to 3.5 mM of nitrile): < 30%
N#CC(O)Cc1ccccn1 (stereo not shown) [2-pyridyl acetaldehyde cyanohydrin] | 6.6 mol product/mol catalyst/sec |  | 
N#CC(O)Cc1ccccc1Br (stereo not shown) [2-bromophenyl acetaldehyde cyanohydrin] | 76 mol product/mol catalyst/sec |  | 
N#CC(O)c1ccc(F)cc1 (stereo not shown) [4-fluoromandelonitrile] |  | 11.8 mol product/mol catalyst/sec | 
N#CC(O)c1ccc2ccccc2c1 (stereo not shown) [2-naphthyl cyanohydrin] |  |  | TOF (turnover frequency) [2, 7]: 2.8 mol product/mol catalyst/sec
N#CC(O)Cc1cccc2ccccc12 (stereo not shown) [1-napthyl acetaldehyde cyanohydrin] | 40 mol product/mol catalyst/sec |  | 
Cc1ccccc1C(O)C#N (stereo not shown) [2-methylmandelonitrile] |  | 5.1 mol product/mol catalyst/sec | 
N#CC(O)Cc1ccsc1 (stereo not shown) [3-thienyl acetaldehyde cyanohydrin] | 1.4 mol product/mol catalyst/sec |  | 
